Assay results published in patent publication US9981983B2, “Thienopyranones as kinase inhibitors” (SignalRx Pharmaceuticals, Inc., priority 2008, dated 2018).
Read-outs that look alike come from different tables or passages of the source. Each block holds one compound with its values, some of them ahead of it. Starred links: 1 amine or outer side, 2 acyl side, 3 side chain; linkers in the order of their positions; H or OH if unused. Positions of bridges follow the written chain, without caps; N, C: chain ends. Non-standard residues stand in square brackets, D forms with d. Residues, ends and D or L forms follow the SMILES beside them. Chains are numbered I, II in the order given. Actinocin(9to1) = Cc1c2oc3c(C)ccc(C(=O)[*:1])c3nc-2c(C(=O)[*:2])c(N)c1=O; NMeV = CN[C@H](C(=O)O)C(C)C; Sar = CNCC(=O)O

How the values were obtained:
mTOR = mTOR (Homo sapiens, UniProt P42345); experiment: mTOR inhibition; type: biochemical
[1] = tested on: pAKT serine 473 level in PC3 cells; experiment: pAKT status in IGF-1 stimulated PC3 cells (Ser473 pAKT ELISA); type: cell-based; settings: Homo sapiens, PC-3
Protocol: (§1) PC3 cells were obtained from the American Type Culture Collection (ATCC, Manassas, Va., Cat.# CRL-1435). Two million cells from the prostate cancer line PC3 were placed into 6 cm culture dishes and allowed to grow in complete RPMI 1640 media (Invitrogen, Carlsbad, Calif., Cat.#22400-105) with 10% fetal bovine serum (Invitrogen, Carlsbad, Calif., Cat.#10438-026). After this time period the cells were serum starved for 5 hours followed by application of the test compound. Test compound was added as a DMSO (dimethyl sulfoxide) solution such that the final DMSO concentration in the cell media was less than or equal to 0.2% by volume After 30 minutes of exposure the growth factor stimulant, human IGF-1 (PeproTech, Inc., Rocky Hill, N.J., Cat.#100-11), was added to a final concentration of 0.1 μg/ml in each well. After 30 minutes of IGF-1 exposure, cells were removed from the media and cell lysates were prepared using RIPA Lysis buffer (Upstate, Lake Placid, N.Y., Cat.#20-188), keeping on ice. The pAKT serine 473 level was measured in duplicate samples of the cell lysates using commercially available assays such as the Pathscan® Sandwich ELISA kit for Ser473 pAKT (Cell Signaling, Danvers, Mass., Cat.#7160). A SpectraMax Plus spectrophotometric plate reader (Molecular Devices, Sunnydale, Calif.) was used to measure the optical density signal for pAKT at 450 nm (OD450 nm). The pAKT OD450 nm readings were normalized by total protein amount in the cell lysates determined by standard methods.
(§2) Concentrations of test compounds required to inhibit IGF stimulated pAKT levels to 50% of maximum levels in PC3 cells (termed DM50 for decreased maximum 50%) were calculated by inputting the dose responses in the software package GraphPad Prism4 (GraphPad Software, Inc., San Diego, Calif.).
By these methods a number of compounds of the invention were evaluated and the concentration needed to reduce the detectable pAKT to 50% of the maximal uninhibited signal was calculated. These values (in μMolar units) are listed in Table 8 under the column heading PC3 pAKT IC50 (μMolar).

pAKT in H1299 cells = experiment: pAKT status DM50, H1299; type: cell-based; settings: Homo sapiens, NCI-H1299; H1299, non-small cell lung cancer
Protocol: as §1, §2
(§3) Several other cancer cell lines were obtained from ATCC and grown according to the supplier's recommendations and treated with test compounds. DM50 values listed in Table 6 below were obtained by the methods described in Example A: […]

pAKT in BT-474 cells = experiment: pAKT status DM50, BT-474; type: cell-based; settings: Homo sapiens; BT-474, breast cancer
Protocol: as §1, §2, §3

pAKT in 786-O cells = experiment: pAKT status DM50, 786-O; type: cell-based; settings: Homo sapiens, 786-0, renal cell carcinoma
Protocol: as §1, §2, §3

H1299 cells = experiment: Cellular proliferation (Example B method), H1299; type: cell-based; settings: Homo sapiens, NCI-H1299; H1299, non-small cell lung cancer
Protocol: (§4) PC3 cells were obtained from the American Type Culture Collection (ATCC, Manassas, Va., Cat.# CRL-1435) Two thousand cells from the prostate cancer line PC3 were placed in 50 μL of complete RPMI 1640 media (Invitrogen, Carlsbad, Calif., Cat.#22400-105) with 10% fetal bovine serum (Invitrogen, Carlsbad, Calif., Cat.#10438-026) into each well of 96 well cell culture plates in a hexaplicate sampling pattern. A 50 μL aliquot of test compound (prepared from stock test compounds in DMSO diluted into media) was added to the appropriate well such that the final concentrations of test compound were 200, 40, 8, 1.6, 0.32, 0.064, 0.0128, 0.00256, and 0 μM and the final DMSO concentration was less than or equal to 0.2%.
(§5) The plates were incubated for 72 hours 37° C. in an atmosphere of 5% CO2. At the end of this time a 10 μL aliquot of WST solution (Roche Applied Science, Mannheim, Germany) was added into each of the wells. Cells were exposed to the WST solution for 4 hours. A SpectraMax Plus spectrophotometric plate reader (Molecular Devices, Sunnydale, Calif.) was then used to measure the optical density at 450 nm (OD450 nm). Sigmoidal curves were drawn for the dose responses and IC50 values were calculated using the software package GraphPad Prism4 (GraphPad Software, Inc., San Diego, Calif.).
(§6) Several other cancer cell lines were obtained from ATCC and grown according to their recommendations and treated with test compounds to obtain the concentration of test compound that inhibited the cellular proliferation by 50% of no-treatment controls. These IC50 values (μM) are listed in Table 7 below obtained by the methods described in Example B: […]

BT-474 cells = experiment: Cellular proliferation (Example B method), BT-474; type: cell-based; settings: Homo sapiens; BT-474, breast cancer
Protocol: as §4, §5, §6

786-O cells = experiment: Cellular proliferation (Example B method), 786-O; type: cell-based; settings: Homo sapiens, 786-0, renal cell carcinoma
Protocol: as §4, §5, §6

PC3 cells = experiment: PC3 prostate cancer cell proliferation (WST); type: cell-based; settings: Homo sapiens, PC-3; 72 hours; read-out: IC50 PC3 Proliferation
Protocol: as §4, §5

[2] = tested on: AKT Ser473 phosphorylation in PC3 (prostate cancer) Cell Line; experiment: pAKT Ser473 ELISA in PC3 cells stimulated by Bv8, VEGF, IGF; type: cell-based; settings: Homo sapiens, PC-3, PC3, read-out: Concentration Required to Inhibit pAKT to Half-maximal Levels
Protocol: (§7) This was followed by the addition of IGF, VEGF and Bv8 to 0.1 μg/mL, 0.1 μg/mL and 2.5 μg/mL respectively for another 30 minutes before harvesting the cells and making cell lysates with RIPA buffer keeping on ice, pAKT levels were measured in duplicate samples with Cell Signaling's Ser473 pAKT ELISA kit. Optical density plate readings of pAKT levels were made at 450 nm (OD450 nm) and were normalized by total protein amount of the cell lysates. The dose of compound at which pAKT levels are reduced to 50% of the non-treatment level was calculated using GraphPad Prism4 software and is listed in Tables 4 and 5 below.

[3] = tested on: AKT Ser473 phosphorylation in renal cell carcinoma (786-O) Cell Line; experiment: pAKT Ser473 ELISA in 786-O cells stimulated by Bv8, VEGF, IGF; type: cell-based; settings: Homo sapiens, 786-0, 786-O, read-out: Concentration Required to Inhibit pAKT to Half-maximal Levels
Protocol: as §7

MCF7 breast cancer cells = experiment: Mammosphere cancer stem cell inhibition assay; type: cell-based; settings: separate experiment; for number of mammospheres: control 32±6
Protocol: A mammosphere cancer stem cell inhibition assay was set up using literature methods (T. M. Phillips et al. J. Natl. Cancer I. 2006, 98, 1777-1785, “Mammalian target of rapamycin contributes to the acquired apoptotic resistance of human mesothelioma multicellular spheroids”) using a subset of MCF7 breast cancer cells that posses the ability to evade anchorage independent apoptosis. Commercially available MCF7 breast cancer cells were cultured in MEM supplemented with 0.01 mg/mL of bovine insulin and 10% FBS at 37° C. in humidified atmosphere (5% CO2). Floating cells in the 2-day cultures were collected, washed, and resuspended in DMEM-F12 (50:50) supplemented with 0.4% BSA, 5 μg/mL bovine insulin, 20 ng/mL bFGF, and 10 ng/mL EGF. Cells were then passed through a […] sieve to remove any cell clusters and adjusted to a density of 10,000 cells/mL. Approximately 500 cells were plated in quadruplicate in a sterile poly-HEMA-treated 96-well plate. Cells were then treated with either control or test solutions consisting of the kinase inhibitor Lapatinib (1 μM), Cpd 28 (1 or 10 μM), Cpd 55 (1 or 10 μM), The numbers of mammospheres (clusters of cells numbering more than 4 or 5 per cluster) were then counted after 5-7 days.

786-0 cells = experiment: Apoptosis in 786-0 cells (Annexin V / PI flow cytometry); type: cell-based; set-up: unit not given here; settings: 200 ng/mL
Protocol: In order to evaluate the mechanism of action of these compounds, 786-0 cell cultures were treated with Cpd 9 or Cpd 28 at different concentrations overnight and then analyzed for apoptotic induction. The cells were stained using standard methods with Annexin V and/or Propedium iodine (PI) at room temperature for 15 minutes. Apoptotic cells at early (Annexin V positive) or late stage (both Annexin V and PI positive) were detected by Flow Cytometry.

[4] = IGF-1 stimulated PC3 cells, read-out: PC3 pAKT IC50

IC50 (mTOR): 610 nM
IC50 [1, 4]: 550 nM
IC50 ([1]; PC3 cells, read-out: IC50 pAKT (Pathway Inhibition)): 550 nM
IC50 (pAKT in H1299 cells): 3190 nM
IC50 (pAKT in BT-474 cells): 1240 nM
IC50 (pAKT in 786-O cells): 4170 nM
IC50 (H1299 cells): 5020 nM
IC50 (BT-474 cells): 11600 nM
IC50 (786-O cells): 9530 nM
SMILES: O=c1cc(N2CCOCC2)oc2c(-c3ccccc3)csc12 [Compound 6, 5-morpholino-3-phenyl-7H-thieno[3,2-b]pyran-7-one]

IC50 [1, 4]: 363 nM
IC50 (PC3 cells): 8420 nM
SMILES: COc1ccc(C#Cc2csc3c(=O)cc(N4CCOCC4)oc23)cc1 [Compound 38]

IC50 (PC3 cells): 1230 to 3140 nM
IC50 ([2]; stimulant Bv8): 941 nM
IC50 ([2]; stimulant IGF): 2120 nM
IC50 ([2]; stimulant PBS): 564 nM
IC50 ([2]; stimulant VEGF): 332 nM
IC50 ([3]; stimulant Bv8): 699 nM
IC50 ([3]; stimulant IGF): 4390 nM
IC50 ([3]; stimulant PBS): 918 nM
IC50 ([3]; stimulant VEGF): 498 nM
SMILES: CCOC(=O)c1ccc(-c2csc3c(=O)cc(N4CCOCC4)oc23)cc1 [Compound 25]
inhibition of mammosphere production versus control (MCF7 breast cancer cells; 1 μM): approximately 69%
number of mammospheres (MCF7 breast cancer cells; 1 μM): 12±3 mammospheres
inhibition of mammosphere production versus control (MCF7 breast cancer cells; 10 μM): approximately 82%
number of mammospheres (MCF7 breast cancer cells; 10 μM): 7±2 mammospheres

SMILES: Cc1c2oc3c(C)ccc(C(=O)N[C@@H]4C(=O)N[C@H](C(C)C)C(=O)N5CCC[C@H]5C(=O)N(C)CC(=O)N(C)[C@@H](C(C)C)C(=O)O[C@@H]4C)c3nc-2c(C(=O)N[C@@H]2C(=O)N[C@H](C(C)C)C(=O)N3CCC[C@H]3C(=O)N(C)CC(=O)N(C)[C@@H](C(C)C)C(=O)O[C@@H]2C)c(N)c1=O [Actinomycin D, reference compound] (I: T[dV]P[Sar][NMeV] / II: T[dV]P[Sar][NMeV]; ester I:1-I:C, II:1-II:C; linker I:N-II:N via Actinocin(9to1))
Early stage apoptotic cells (786-0 cells): 16.93
Late stage apoptotic cells (786-0 cells): 12.63
Total Apoptotic Cells (786-0 cells): 29.56
